# Measurements published in US20230127944A1, “BROAD-SPECTRUM CARBAPENEMS” (priority 2019, published 2023).
# Legend:
# Assay type in all cases: cell-based
# [1] = test system: P. aeruginosa ATCC 27853 (wild-type/QC strain); assay: broth microdilution MIC assay, P. aeruginosa 27853; details: Pseudomonas aeruginosa, ATCC27853; read-out: MIC, P. aeruginosa 27853
# Method in brief: (§1)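 CLSI broth microdilution in cation-supplemented Mueller-Hinton broth with 2-fold compound dilutions and an inoculum of 5×10^5 CFU/mL from log-phase cultures. Plates were incubated 16-20 h at 37 °C, and the MIC was read visually as the lowest concentration with no growth.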
# S. aureus USA 300 = assay: broth microdilution MIC assay, S. aureus USA300; details: Staphylococcus aureus; S. aureus USA300 (MRSA); read-out: MIC, S. aureus USA300
# Method in brief: as §1
# [2] = test system: P. aeruginosa clinical isolates; assay: expanded MIC profiling, P. aeruginosa clinical isolates; details: Pseudomonas aeruginosa
# Method: (§2) To evaluate the activity of selected example compounds against clinical isolates of target species, standard cell-based broth microdilution MIC assays were employed. A panel of 20 clinical isolates of P. aeruginosa and 20 clinical isolates of Methicillin Resistant S. aureus (MRSA) from Lankenau Medical Center (Wynnewood, Pa.) were used. In the set of P. aeruginosa isolates, the compounds were also tested in combination with a β-lactamase inhibitor (taniborbactam), to evaluate the potential benefit of inhibiting β-lactamase enzymes. The assay was conducted in Cation Adjusted Mueller Hinton Broth (CAMHB, BD #212322, BD Diagnostic Systems, Sparks, Md.). Bacteria strains were grown for 3-5 hours in CAMHB. Compounds were added to a microtiter plate in 2-fold serial dilutions in CAMHB. For plates receiving β-lactamase inhibitor, taniborbactam was added to obtain a final fixed concentration of 4 μg/mL. Once the test articles were added, the plates were inoculated according to CLSI broth microdilution method. After inoculation, the plates were incubated for 16-20 hours at 37° C. then the Minimal Inhibitory Concentration (MIC) of the test compound is determined visually. Values for concentration required to inhibit growth of […] (MIC50) and 90% (MIC90) of isolates were determined.
# S. aureus USA 600 = assay: broth microdilution MIC assay, S. aureus USA600; details: Staphylococcus aureus; S. aureus USA600 (MRSA); read-out: MIC, S. aureus USA600
# Method in brief: as §1
# [3] = test system: P. aeruginosa ΔmexAB-OprM (an efflux pump knockout); assay: broth microdilution MIC assay, P. aeruginosa ΔmexAB-OprM; details: Pseudomonas aeruginosa, read-out: MIC, P. aeruginosa ΔmexAB-OprM
# Method in brief: as §1
# [4] = test system: S. aureus ATCC 33591 (methicillin-resistant); assay: broth microdilution MIC assay, S. aureus 33591; details: Staphylococcus aureus, ATCC33591; S. aureus 33591, methicillin-resistant; read-out: MIC, S. aureus 33591
# Method in brief: as §1
# [5] = test system: Methicillin Resistant S. aureus (MRSA) clinical isolates; assay: expanded MIC profiling, MRSA clinical isolates; details: Staphylococcus aureus
# Method: as §2
# [6] = test system: P. aeruginosa 35151 (hyper-permeable strain); assay: broth microdilution MIC assay, P. aeruginosa 35151; details: Pseudomonas aeruginosa, read-out: MIC, P. aeruginosa 35151
# Method in brief: as §1
# P. aeruginosa Paeβ-17 = assay: broth microdilution MIC assay, P. aeruginosa Paeβ-17; details: Pseudomonas aeruginosa, read-out: MIC, P. aeruginosa Paeβ-17
# Method in brief: as §1
# [7] = panel of 20 P. aeruginosa clinical isolates
# [8] = panel of S. aureus (MRSA) isolates of Table 5
structure (smiles),measurement,setting,value
"C[C@@H](O)[C@H]1C(=O)N2C(C(=O)O)=C(S[C@@H]3CCN(C[C@H]4CC[C@H](NC(=N)N)CC4)C3)[C@H](C)[C@H]12 [Example 28, (4R,5S,6S)-3-(((R)-1-(((1R,4R)-4-guanidinocyclohexyl)methyl)pyrrolidin-3-yl)thio)-6-((R)-1-hydroxyethyl)-4-methyl-7-oxo-1-azabicyclo[3.2.0]hept-2-ene-2-carboxylic acid]",MIC,[1],1 to 4 µg/mL
same,MIC,S. aureus USA 300,1 to 4 µg/mL
same,MIC,[2]; P. aeruginosa clinical isolate Lankenau 11,2 µg/mL
same,MIC,[2]; P. aeruginosa clinical isolate Lankenau 12,0.5 µg/mL
same,MIC,[2]; P. aeruginosa clinical isolate Lankenau 13,0.5 µg/mL
same,MIC,[2]; P. aeruginosa clinical isolate Lankenau 14,1 µg/mL
same,MIC,[2]; P. aeruginosa clinical isolate Lankenau 15,1 µg/mL
same,MIC,[2]; P. aeruginosa clinical isolate Lankenau 16,1 µg/mL
same,MIC,[2]; P. aeruginosa clinical isolate Lankenau 17,1 µg/mL
same,MIC,[2]; P. aeruginosa clinical isolate Lankenau 18,1 µg/mL
same,MIC,[2]; P. aeruginosa clinical isolate Lankenau 19,1 µg/mL
same,MIC,[2]; P. aeruginosa clinical isolate Lankenau 20,1 µg/mL
same,MIC,[2]; P. aeruginosa clinical isolate Lankenau 21,1 µg/mL
same,MIC,[2]; P. aeruginosa clinical isolate Lankenau 22,1 µg/mL
same,MIC,[2]; P. aeruginosa clinical isolate Lankenau 23,2 µg/mL
same,MIC,[2]; P. aeruginosa clinical isolate Lankenau 24,2 µg/mL
same,MIC,[2]; P. aeruginosa clinical isolate Lankenau 25,2 µg/mL
same,MIC,[2]; P. aeruginosa clinical isolate Lankenau 26,2 µg/mL
same,MIC,[2]; P. aeruginosa clinical isolate Lankenau 27,2 µg/mL
same,MIC,[2]; P. aeruginosa clinical isolate Lankenau 28,8 µg/mL
same,MIC,[2]; P. aeruginosa clinical isolate Lankenau 29,16 µg/mL
same,MIC,[2]; P. aeruginosa clinical isolate Lankenau 30,32 µg/mL
same,MIC50,[2]; [7],1 µg/mL
same,MIC90,[2]; [7],8 µg/mL
same,MIC,S. aureus USA 600,< 1 µg/mL
same,MIC,[3],< 1 µg/mL
same,MIC,[4],1 to 4 µg/mL
same,MIC,"[5]; ATCC 33591 / MRSA, S. aureus ATCC-33591",2 µg/mL
same,MIC,"[5]; MRSA, S. aureus clinical isolate LH-SA3",0.5 µg/mL
same,MIC,"[5]; MRSA, S. aureus clinical isolate LH-SA9",0.5 µg/mL
same,MIC,"[5]; MRSA, S. aureus clinical isolate LH-SA23",0.5 µg/mL
same,MIC,"[5]; MRSA, S. aureus clinical isolate LH-SA24",0.5 µg/mL
same,MIC,"[5]; MRSA, S. aureus clinical isolate LH-SA26",0.5 µg/mL
same,MIC,"[5]; MRSA, S. aureus clinical isolate LH-SA29",2 µg/mL
same,MIC,"[5]; MRSA, S. aureus clinical isolate LH-SA33",2 µg/mL
same,MIC,"[5]; MRSA, S. aureus clinical isolate LH-SA34",4 µg/mL
same,MIC,"[5]; MRSA, S. aureus clinical isolate LH-SA37",0.25 µg/mL
same,MIC,"[5]; MRSA, S. aureus clinical isolate LH-SA38",4 µg/mL
same,MIC,"[5]; MRSA, S. aureus clinical isolate LH-SA39",2 µg/mL
same,MIC,"[5]; MRSA, S. aureus clinical isolate LH-SA40",2 µg/mL
same,MIC,"[5]; MRSA, S. aureus clinical isolate LH-SA41",2 µg/mL
same,MIC,"[5]; MRSA, S. aureus clinical isolate LH-SA42",0.5 µg/mL
same,MIC,"[5]; MRSA, S. aureus clinical isolate LH-SA44",4 µg/mL
same,MIC,"[5]; MRSA, S. aureus clinical isolate LH-SA45",16 µg/mL
same,MIC,"[5]; MRSA, S. aureus clinical isolate LH-SA48",0.5 µg/mL
same,MIC,"[5]; MRSA, S. aureus clinical isolate LH-SA49",0.5 µg/mL
same,MIC,"[5]; MRSA, S. aureus clinical isolate LH-SA50",0.5 µg/mL
same,MIC50,[5]; [8],0.5 µg/mL
same,MIC90,[5]; [8],4 µg/mL
same,MIC,[6],< 1 µg/mL
same,MIC,P. aeruginosa Paeβ-17,8 to 32 µg/mL
